US11696938B2, “Human cancer cell metastasis inhibitory agent and human cancer cell determination agent” (priority 2017, dated 2023)

Key:
OV2944 cells [1] = experiment: Cell invasion assay (Matrigel Invasion Chamber); format: cell-based, mouse; settings: for cell invasion, ranking of suppression: 8 μM each, versus 10 μM BSA
Experimental: (§1) Cell invasion was analyzed using a BD BioCoat (registered trademark) Matrigel Invasion Chamber (Becton, Dickinson and Company). First, a certain amount of cells (about 1×10^5 cells/well) were treated with 2 μM, 8 μM, or 20 μM mouse dicalcin at room temperature for 20 minutes.
(§2) The treated cells were washed by centrifugation treatment, and then plated in the upper chamber of a transwell preliminarily coated with Matrigel, followed by performing culture using DMEM (+10% FBS) as a medium.
About 16 hours later, the invading cells that had migrated into the lower chamber were fixed using 4% paraformaldehyde/phosphate buffer at room temperature for 10 minutes, and then stained with crystal violet, followed by excision of the membrane, embedding on a slide, and counting of the cell number.

OV2944 cells [2] = experiment: Cell binding experiment (fluorescently labeled protein/peptide, confocal microscope); design: species or system mouse; settings: for cell-binding ability (fluorescence intensity): 5 μM rhodamine-labeled partial peptides, ranking
Experimental: The OV2944-HM-1 cell line (which may be referred to as “OV2944 cells” or, simply, “cells”), which is a commonly used cell line, was used. OV2944 cells were obtained from RIKEN BioResource Center (Cell No. RCB1483), and cultured in DMEM medium (+10% FBS) according to a conventional method.
Cultured cells were fixed on a glass plate (4% paraformaldehyde/phosphate buffer, room temperature, 10 minutes), and treated with sheep serum. Thereafter, mouse dicalcin (5 μM) fluorescently labeled with tetramethylrhodamine (TMR) was reacted with the cells in the presence of 1 mM CaCl2 (4° C., overnight). After washing with TBS buffer, analysis was carried out using a confocal microscope (Carl Zeiss). Further, cell nuclei were stained with DAPI.
An experiment was carried out in the same manner as in Experimental Example 1-1 except that the reaction was carried out in the presence of 1 mM EGTA (which may be referred to as “in the absence of calcium”).
An experiment was carried out in the same manner as in Experimental Example 1-1 except that immunostaining was carried out using an anti-mouse dicalcin antibody (Catalog No. MAB5167, R&D Systems) as a primary antibody, and an Alexa Fluor (registered trademark) 594-labeled anti-rat IgG antibody (Catalog No. A11007, Invitrogen) as a secondary antibody.
An experiment was carried out in the same manner as in Experimental Example 1-1 except that each of partial peptides p1 to p7 (5 μM) fluorescently labeled with rhodamine was used.

OV2944 cells [3] = experiment: Analysis of survival after cell transfer (Kaplan Meier); format: in vivo, mouse; settings: intraperitoneal, 3 nmoles/two days
Experimental: The purified OV2944 cells expressing the fluorescent protein tdTomato were transferred into the abdominal cavity of mice (B6C3F1 strain, 9 weeks old, female, CLEA Japan, Inc.) (1×10^5 cells/mouse). […] On Day 21, the abdominal organs were removed, and OV2944 cells expressing the fluorescent protein tdTomato in the liver were observed using a fluorescence stereomicroscope OV110 (Olympus Corporation).
Intraperitoneal injection was carried out in the same manner as in Experimental Example 13-1 and Experimental Example 13-2, and survival analysis was carried out thereafter to provide Experimental Example 14-1 and Experimental Example 14-2. For the survival curve according to the Kaplan Meier method, a significant difference was analyzed by log-rank test.

OVCAR cells [4] = experiment: Cell invasion assay; format: cell-based, human
Experimental: as §1, §2
About 16 hours later, the invading cells that had migrated into the lower chamber were fixed using 4% paraformaldehyde/phosphate buffer at room temperature for 10 minutes, and then stained with crystal violet, followed by excision of the membrane, embedding on a slide, and counting of the cell number. The invasion index was calculated as {(number of stained cells)/(number of plated cells)}×100(%), and normalized by the later-mentioned result of Experimental Example 2-2, which was taken as 100(%).
The OVCAR-3 cell line (which may be referred to as “OVCAR cells” or, simply, “cells”), which is a commonly used cell line, was used. OVCAR cells were obtained from RIKEN BioResource Center (Cell No. RCB2135), and cultured in DMEM medium (+10% FBS) according to a conventional method. This line is a human ovarian cancer (adenocarcinoma)-derived cell line.
An analysis was carried out in the same manner as in Experimental Example 2-1 except that OVCAR cells were used as the cells, and that 8 μM or 20 μM human dicalcin was used instead of mouse dicalcin.
An analysis was carried out in the same manner as in Experimental Example 9-1 except that 20 μM BSA was used instead of human dicalcin.
An analysis was carried out in the same manner as in Experimental Example 2-1 except that OVCAR cells were used as the cells, and that 2 μM or 10 μM hDC-p6 was used as a partial peptide. Statistical analysis was carried out by unpaired Student t-test in order to analyze a significant difference.

OVCAR cells [5] = experiment: Cell survival assay; format: cell-based, human; settings: 20 μM; versus 10 μM BSA
Experimental: (§3) First, a certain amount of cells (about 1×10^5 cells/well) were treated with 20 μM mouse dicalcin at room temperature for 20 minutes. The cells were then washed and aliquoted into a 96-well plate, followed by performing culture. One hour later, after washing with PBS buffer, the cells were fixed using 4% paraformaldehyde/phosphate buffer at room temperature for 10 minutes. The cells were then stained with crystal violet and solubilized, followed by measuring the absorbance (measurement wavelength, 550 nm) in order to analyze the cell survival rate. The cell survival rate was calculated as {(number of stained cells)/(number of plated cells)}×100(%). Normalization was carried out by the later-mentioned result of Experimental Example 4-2, which was taken as 100(%).
An experiment was carried out in the same manner as in Experimental Example 4-1 except that OVCAR cells were used as the cells, and that 20 μM human dicalcin was used instead of mouse dicalcin.
An experiment was carried out in the same manner as in Experimental Example 10-1 except that 10 μM BSA was used instead of human dicalcin.

OV2944 cells [6] = experiment: Cell adhesion assay (Matrigel); format: cell-based, mouse; settings: 8 or 20 μM
Experimental: First, a certain amount of cells (about 1×10^5 cells/well) were treated with 8 μM or 20 μM mouse dicalcin at room temperature for 20 minutes. After coating a 24-well plate with, and allowing gelation of, BD Matrigel (registered trademark) (Becton, Dickinson and Company), the pretreated cells were washed and plated therein.
About 1 hour later, nonadherent cells were aspirated. After washing, adherent cells were fixed using 4% paraformaldehyde/phosphate buffer at room temperature for 10 minutes, and then stained with crystal violet, followed by counting of the cell number. The adhesion index was calculated as {(number of stained cells)/(number of plated cells)}×100(%). Normalization was carried out by the later-mentioned result of Experimental Example 3-2, which was taken as 100(%).
An experiment was carried out in the same manner as in Experimental Example 3-1 except that mouse dicalcin was not added.
An experiment was carried out in the same manner as in Experimental Example 3-1 except that 10 μM BSA was used instead of mouse dicalcin.

OV2944 cells [7] = experiment: Cell survival assay (crystal violet); format: cell-based, mouse; settings: 20 μM; versus 10 μM BSA
Experimental: as §3
An experiment was carried out in the same manner as in Experimental Example 4-1 except that 10 μM BSA was used instead of mouse dicalcin.

Molecule: p7: partial peptide of mouse dicalcin, SEQ ID NO: 18, GGLAIACHDSFIQTSQKRI (listed as Mus musculus)
- cell invasion, ranking of suppression (OV2944 cells [1]): followed by p2, p′7, and p5 in this order
- cell-binding ability (fluorescence intensity) (OV2944 cells [2]): second highest cell-binding ability

Molecule: p5: partial peptide of mouse dicalcin, SEQ ID NO: 16, MMKKLDLNCDG (listed as Mus musculus)
- cell invasion, ranking of suppression (OV2944 cells [1]): followed by p2, p′7, and p5 in this order
- cell-binding ability (fluorescence intensity) (OV2944 cells [2]): second highest cell-binding ability

Molecule: p4: partial peptide of mouse dicalcin, SEQ ID NO: 15, MNTELAAFTKNQKDPGVLDR (listed as Mus musculus)
- cell-binding ability (fluorescence intensity) (OV2944 cells [2]): third highest cell-binding ability

Molecule: p1: partial peptide of mouse dicalcin, SEQ ID NO: 12, PTETERCIE; used as control peptide (listed as Mus musculus)
- average number of days of survival (OV2944 cells [3]): 32 days

Molecule: p2: partial peptide of mouse dicalcin, SEQ ID NO: 13, SLIAVFQKY (listed as Mus musculus)
- cell invasion, ranking of suppression (OV2944 cells [1]): followed by p2, p′7, and p5 in this order
- cell-binding ability (fluorescence intensity) (OV2944 cells [2]): second highest cell-binding ability

B1: human dicalcin: recombinant full-length human dicalcin (S100A11), SEQ ID NO:1 (protein, listed as Homo sapiens)
chain: AKISSPTETERCIESLIAVFQKYAGKDGYNYTLSKTEFLSFMNTELAAFTKNQKDPGVLDRMMKKLDTNSDGQLDFSEFLNLIGGLAMACHDSFLKAVPSQKRT
- invasion index (OVCAR cells [4]; 20 μM, normalized to BSA as 100%): 43.9%
- cell invasion (invasion index) (OVCAR cells [4]; 8 or 20 μM human dicalcin, versus 20 μM BSA): suppresses the cell invasion in a concentration-dependent manner
- cell survival rate (OVCAR cells [5]): does not affect the survival of the cells

B2: mouse dicalcin: recombinant full-length mouse dicalcin (S100A11), SEQ ID NO:11, expressed in E. coli (protein, listed as Mus musculus)
chain: PTETERCIESLIAVFQKYSGKDGNNTQLSKTEFLSFMNTELAAFTKNQKDPGVLDRMMKKLDLNCDGQLDFQEFLNLIGGLAIACHDSFIQTSQKRI
- cell adhesion (adhesion index) (OV2944 cells [6]): suppresses the cell adhesion in a concentration-dependent manner
- cell invasion (invasion index) (OV2944 cells [1]; 2, 8 or 20 μM, normalized to 10 μM BSA): suppresses the cell invasion in a concentration-dependent manner
- cell survival rate (OV2944 cells [7]): does not affect the survival of the cells
- binding to the cells (fluorescence) (OV2944 cells [2]; 5 μM TMR-labeled, 1 mM CaCl2 versus 1 mM EGTA): larger amount of mouse dicalcin binds to the cells in the presence of calcium
